In brackets after ≈: the same amount, converted by molar mass. Where two headings read alike, the source gives them in different places.
What was measured:
E. faecalis VRE 37 = experiment: MIC, broth microdilution, vancomycin-resistant E. faecalis VRE 37 (VanA); assay type: cell-based, Enterococcus faecalis; settings: Enterococcus faecalis VRE 37 (vancomycin-resistant); read-out: MIC
Outline: (§1)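 Controls (ultrapure water; broth not inoculated) were included throughout CLSI-compliant broth microdilution. One condition supplemented analogue or comparator with 10 μM vancomycin, final level.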

[1] = test system: L1210, CEM and HeLa cell lines; experiment: Cytostatic activity, average or summary over L1210, CEM and HeLa; assay type: cell-based; settings: average of L1210, CEM and HeLa; read-out: Toxicity (IC50) Average
Outline: (§2)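 Test compounds, serially diluted, received an equal volume of cell suspension at 300,000–500,000 cells/mL. After 37°C incubation (2 days for L1210, 3 for CEM, 4 for HeLa), cells were enumerated by Coulter counting and 50%-inhibitory concentrations calculated per cell type.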

S. aureus VISA/HIP5827 = experiment: MIC, broth microdilution, vancomycin-intermediate S. aureus VISA HIP5827; assay type: cell-based, Staphylococcus aureus
Outline: as §1

MRSA KS1 = experiment: MIC, broth microdilution, MRSA KS1; assay type: cell-based, Staphylococcus aureus
Outline: as §1

[2] = test system: human cervix carcinoma (HeLa) cells; experiment: Cytostatic activity, HeLa cell proliferation; assay type: cell-based; settings: mean ± SD of three experiments; highest concentration tested 250 µM; 4 days; read-out: Toxicity (IC50) HeLa
Outline: as §2

E. faecalis VRE 53 = experiment: MIC, broth microdilution, vancomycin-resistant E. faecalis VRE 53 (VanA); assay type: cell-based, Enterococcus faecalis; settings: for MIC: read-out: MIC
Outline: as §1

E. coli XL-1 blue MRF' = experiment: MIC, broth microdilution, E. coli XL-1 blue MRF'; assay type: cell-based, Escherichia coli; settings: E. coli XL-1 blue MRF'
Description: (§3) The minimum inhibitory concentration (MIC) was determined using the broth microdilution method according to the antimicrobial susceptibility testing standards of the clinical and laboratory standards institute ([Clinical and Laboratory Standards Institute [CLSI], 2012]). Ultrapure water and non-inoculated broth were used as controls. In one case, a final concentration of 10 μM vancomycin was included with the vancomycin analog or control antibiotic.

E. faecalis VRE 6 = experiment: MIC, broth microdilution, vancomycin-resistant E. faecalis VRE 6 (VanA); assay type: cell-based, Enterococcus faecalis; settings: for MIC: read-out: MIC
Outline: as §1

E. faecalis VSE 1 = experiment: MIC, broth microdilution, vancomycin-sensitive E. faecalis (VSE 1); assay type: cell-based, Enterococcus faecalis; settings: for MIC: read-out: MIC
Outline: as §1

MRSA KS89 = experiment: MIC, broth microdilution, MRSA KS89; assay type: cell-based, Staphylococcus aureus
Outline: as §1

[3] = test system: Murine leukemia (L1210) cells; experiment: Cytostatic activity, L1210 cell proliferation; assay type: cell-based; settings: mean ± SD of three experiments; highest concentration tested 250 µM; 2 days; read-out: Toxicity (IC50) L1210
Outline: as §2

S. aureus VRSA = experiment: MIC, broth microdilution, vancomycin-resistant S. aureus (VRSA); assay type: cell-based, Staphylococcus aureus
Outline: as §1

[4] = test system: S. aureus VSSA (ATCC 6538); experiment: MIC, broth microdilution, vancomycin-sensitive S. aureus (VSSA/MSSA, ATCC 6538); assay type: cell-based, Staphylococcus aureus
Outline: as §1

B. subtilis PSB3 = experiment: MIC, broth microdilution, B. subtilis PSB3; assay type: cell-based, Bacillus subtilis
Description: as §3

MRSA KS2 = experiment: MIC, broth microdilution, MRSA KS2; assay type: cell-based, Staphylococcus aureus
Outline: as §1

MRSA KS6 = experiment: MIC, broth microdilution, MRSA KS6; assay type: cell-based, Staphylococcus aureus
Outline: as §1

[5] = test system: human T-lymphocyte (CEM) cells; experiment: Cytostatic activity, CEM cell proliferation; assay type: cell-based; settings: mean ± SD of three experiments; highest concentration tested 250 µM; 3 days; read-out: Toxicity (IC50) CEM
Outline: as §2

E. faecalis VRE 29 = experiment: MIC, broth microdilution, vancomycin-resistant E. faecalis VRE 29 (VanA); assay type: cell-based, Enterococcus faecalis
Outline: as §1

[6] = ratio of MIC of vancomycin and MIC of analogue

Which MIC (E. faecalis VRE 37) does the source give for C#Cc1ccc(-c2ccc(C(=O)NCCCNC(=O)[C@H]3NC(=O)[C@H]4NC(=O)[C@H](NC(=O)[C@@H]5NC(=O)[C@H](CC(N)=O)NC(=O)[C@H](NC(=O)[C@@H](CC(C)C)NC)[C@H](O)c6ccc(c(Cl)c6)Oc6cc5cc(c6O[C@@H]5O[C@H](CO)[C@@H](O)[C@H](O)[C@H]5O[C@H]5C[C@](C)(N)[C@H](O)[C@H](C)O5)Oc5ccc(cc5Cl)[C@H]4O)c4ccc(O)c(c4)-c4c(O)cc(O)cc43)cc2)cc1 [Vanc-S] here?
The MIC was 25 µM (≈ 42.7 µg/mL).

And the IC50 [1]?
The IC50 was 29 µM.

And the MIC (S. aureus VISA/HIP5827; Staphylococcus aureus VISA/HIP5827, read-out: MIC)?
The MIC was 0.39 µM (≈ 0.667 µg/mL).

And the “MIC-fold improvement vs. vancomycin” value (S. aureus VISA/HIP5827; VISA/HIP5827, ratio of MIC of vancomycin and MIC of analogue)?
The value was 16.

And the “MIC-fold improvement vs. vancomycin” value (MRSA KS1; MRSA KS1, ratio of MIC of vancomycin and MIC of analogue)?
Its value is >8.

And the MIC (MRSA KS1; Staphylococcus aureus MRSA KS1, read-out: MIC)?
The MIC was <0.10 µM.

What about the IC50 [2] of the same compound?
The IC50 was 70 ± 8 µM.

What about the MICvanc/MICi (E. faecalis VRE 53; E. faecalis VRE 53, ratio of MIC of vancomycin and MIC of analogue) of the same compound?
Its MICvanc/MICi is 128.

And the MIC (E. faecalis VRE 53; E. faecalis VRE 53)?
The MIC was 3.13 µM (≈ 5.35 µg/mL).

What about the MIC (E. faecalis VRE 53; Enterococcus faecalis VRE 53 (vancomycin-resistant)) of the same compound?
Its MIC is 3.13 µM (≈ 5.35 µg/mL).

And the “MIC-fold improvement vs. vancomycin” value (E. faecalis VRE 53; VRE 53, ratio of MIC of vancomycin and MIC of analogue)?
Its value is 128.

And the MIC (E. coli XL-1 blue MRF')?
The MIC was 50 µM (≈ 85.5 µg/mL).

What about the MICvanc/MICi (E. coli XL-1 blue MRF'; [6]) of the same compound?
Its MICvanc/MICi is 2.

What about the MICvanc/MICi (E. faecalis VRE 6; E. faecalis VRE 6, ratio of MIC of vancomycin and MIC of analogue) of the same compound?
The MICvanc/MICi was 256.

And the MIC (E. faecalis VRE 6; E. faecalis VRE 6)?
The MIC was 0.78 µM (≈ 1.33 µg/mL).

And the MIC (E. faecalis VRE 6; Enterococcus faecalis VRE 6 (vancomycin-resistant))?
Its MIC is 0.78 µM (≈ 1.33 µg/mL).

What about the “MIC-fold improvement vs. vancomycin” value (E. faecalis VRE 6; VRE 6, ratio of MIC of vancomycin and MIC of analogue) of the same compound?
Its value is 256.

What about the MICvanc/MICi (E. faecalis VSE 1; E. faecalis VSE 1, ratio of MIC of vancomycin and MIC of analogue) of the same compound?
The MICvanc/MICi was 64.

What about the MIC (E. faecalis VSE 1; E. faecalis VSE 1) of the same compound?
The MIC was 0.03 µM (≈ 0.0513 µg/mL).

And the MIC (E. faecalis VSE 1; Enterococcus faecalis VSE 1 (vancomycin-sensitive))?
Its MIC is 0.03 µM (≈ 0.0513 µg/mL).

What about the “MIC-fold improvement vs. vancomycin” value (E. faecalis VSE 1; VSE 1, ratio of MIC of vancomycin and MIC of analogue) of the same compound?
The value was 64.

What about the “MIC-fold improvement vs. vancomycin” value (MRSA KS89; MRSA KS8, ratio of MIC of vancomycin and MIC of analogue) of the same compound?
The value was 4.

And the MIC (MRSA KS89; Staphylococcus aureus MRSA KS8, read-out: MIC)?
Its MIC is 0.20 µM (≈ 0.342 µg/mL).

What about the IC50 [3] of the same compound?
Its IC50 is 10 ± 4 µM.

What about the MIC (S. aureus VRSA; Staphylococcus aureus VRSA, read-out: MIC) of the same compound?
The MIC was 0.78 µM (≈ 1.33 µg/mL).

What about the “MIC-fold improvement vs. vancomycin” value (S. aureus VRSA; VRSA, ratio of MIC of vancomycin and MIC of analogue) of the same compound?
Its value is 128.

And the MIC ([4]; Staphylococcus aureus VSSA, read-out: MIC)?
The MIC was 0.10 µM (≈ 0.171 µg/mL).

What about the “MIC-fold improvement vs. vancomycin” value ([4]; VSSA, ratio of MIC of vancomycin and MIC of analogue) of the same compound?
Its value is 8.

What about the MIC (B. subtilis PSB3) of the same compound?
The MIC was 0.20 µM (≈ 0.342 µg/mL).

What about the MICvanc/MICi (B. subtilis PSB3; [6]) of the same compound?
The MICvanc/MICi was 2.

What about the “MIC-fold improvement vs. vancomycin” value (MRSA KS2; MRSA KS2, ratio of MIC of vancomycin and MIC of analogue) of the same compound?
Its value is 4.

What about the MIC (MRSA KS2; Staphylococcus aureus MRSA KS2, read-out: MIC) of the same compound?
Its MIC is 0.20 µM (≈ 0.342 µg/mL).

And the “MIC-fold improvement vs. vancomycin” value (MRSA KS6; MRSA KS6, ratio of MIC of vancomycin and MIC of analogue)?
The value was 2.

And the MIC (MRSA KS6; Staphylococcus aureus MRSA KS6, read-out: MIC)?
The MIC was 0.39 µM (≈ 0.667 µg/mL).

What about the IC50 [5] of the same compound?
The IC50 was 5.6 ± 1.1 µM.

What about the MIC (E. faecalis VRE 29; Enterococcus faecalis VRE 29 (vancomycin-resistant), read-out: MIC) of the same compound?
Its MIC is 6.25 µM (≈ 10.7 µg/mL).

And the “MIC-fold improvement vs. vancomycin” value (E. faecalis VRE 29; VRE 29, ratio of MIC of vancomycin and MIC of analogue)?
The value was 64.

From article PMC6001238, “Iterative Chemical Engineering of Vancomycin Leads to Novel Vancomycin Analogs With a High in Vitro Therapeutic Index” (Frontiers in Microbiology, 2018)
